Data: US20250129070A1, “BIFUNCTIONAL ANDROGEN RECEPTOR COMPOUNDS” (priority 2023, published 2025)

How the values were obtained:
[1] = tested on: AR / CBP ternary complex; assay: Ternary complex formation assay (sandwich ELISA, AR capture / CBP detection) in VCaP cell lysates; assay type: cell-based; details: 1.5 hours treatment, sandwich ELISA (AR capture, CBP or p300 detection)
Procedure, shortened: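 Anti-AR (AR 441)-coated plates capture AR from lysates of VCaP cells grown ≥3 days at 50K/well in 5% charcoal-stripped FBS, dosed with bifunctional for 1.5 h and lysed 30 min at 4 °C. Co-captured CBP/p300 is probed with rabbit mAb and HRP anti-rabbit, then QuantaRed fluorescence (570/585) is read at 0, 5 and 15 min.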

[2] = tested on: VCaP cells; assay: VCaP growth inhibition assay; assay type: cell-based; details: 30 pM R1881, 9 days, CTG
Procedure, shortened: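 Growth read by CTG luminescence after 9-day exposure to compound (final 100 nM–10 fM, 1:5 steps) plus 30 pM R1881, in phenol red-free DMEM with 5% CSS. Cells pre-incubated 72 h before dosing; IC50 by nonlinear 4-parameter regression.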

EC50 [1] [nM]	IC50 [2] [nM]	Compound
< 1	0.1 to 1	COc1cc(OC2C(C)(C)C(NC(=O)c3ccc(N4CCC(CN5CCC(n6nc(N7CCCc8cc(-c9cnn(C)c9)c(C(F)F)cc87)c7c6CCN(C(C)=O)C7)CC5)(OC)CC4)cc3)C2(C)C)ccc1C#N (stereo not drawn) [Compound 264, 4-[4-[[4-[5-acetyl-3-[7-(difluoromethyl)-6-(1-methylpyrazol-4-yl)-3,4-dihydro-2H-quinolin-1-yl]-6,7-dihydro-4H-pyrazolo[4,3-c]pyridin-1-yl]-1-piperidyl]methyl]-4-methoxy-1-piperidyl]-N-[3-(4-cyano-3-methoxy-phenoxy)-2,2,4,4-tetramethyl-cyclobutyl]benzamide]
< 1	0.1 to 1	CC(=O)N1CCc2c(c(N3CCCc4cc(C#N)c(C(F)F)cc43)nn2C2CCN(CC3C(C)CN(c4ncc(C(=O)NC5C(C)(C)C(Oc6ccc(C#N)c(Cl)c6)C5(C)C)cn4)CC3C)CC2)C1 (stereo not drawn) [Compound 458, 2-[4-[[4-[5-acetyl-3-[6-cyano-7-(difluoromethyl)-3,4-dihydro-2H-quinolin-1-yl]-6,7-dihydro-4H-pyrazolo[4,3-c]pyridin-1-yl]-1-piperidyl]methyl]-3,5-dimethyl-1-piperidyl]-N-[3-(3-chloro-4-cyano-phenoxy)-2,2,4,4-tetramethyl-cyclobutyl]pyrimidine-5-carboxamide]
< 1	≤ 0.1	COC1CN(c2ncc(C(=O)NC3C(C)(C)C(Oc4ccc(C#N)c(Cl)c4)C3(C)C)cn2)CCC1CN1CCC(n2nc(N3CCCc4cc(-c5cnn(C)c5)c(C(F)F)cc43)c3c2CCN(C(C)=O)C3)CC1 (stereo not drawn) [Compound 329, 2-[4-[[4-[5-acetyl-3-[7-(difluoromethyl)-6-(1-methylpyrazol-4-yl)-3,4-dihydro-2H-quinolin-1-yl]-6,7-dihydro-4H-pyrazolo[4,3-c]pyridin-1-yl]-1-piperidyl]methyl]-3-methoxy-1-piperidyl]-N-[3-(3-chloro-4-cyano-phenoxy)-2,2,4,4-tetramethyl-cyclobutyl]pyrimidine-5-carboxamide]
< 1	0.1 to 1	COc1cc(OC2C(C)(C)C(NC(=O)c3ccc(N4CCC(CCc5ccc(-c6cc7c(cc6C(F)F)N(c6nn(C8CCOCC8)c8c6CN(C(C)=O)CC8)CCC7)cn5)CC4)cc3)C2(C)C)ccc1C#N (stereo not drawn) [Compound 247, 4-[4-[2-[5-[1-(5-acetyl-1-tetrahydropyran-4-yl-6,7-dihydro-4H-pyrazolo[4,3-c]pyridin-3-yl)-7-(difluoromethyl)-3,4-dihydro-2H-quinolin-6-yl]-2-pyridyl]ethyl]-1-piperidyl]-N-[3-(4-cyano-3-methoxy-phenoxy)-2,2,4,4-tetramethyl-cyclobutyl]benzamide]
< 1	0.1 to 1	CC(=O)N1CCc2c(c(Nc3ccc(-c4cnn(C)c4)cc3F)nn2C2CCN(CCN3CCN(c4ncc(C(=O)NC5C(C)(C)C(Oc6ccc(C#N)c(Cl)c6)C5(C)C)cn4)CC3)CC2)C1 (stereo not drawn) [Compound 167, 2-[4-[2-[4-[5-acetyl-3-[2-fluoro-4-(1-methylpyrazol-4-yl)anilino]-6,7-dihydro-4H-pyrazolo[4,3-c]pyridin-1-yl]-1-piperidyl]ethyl]piperazin-1-yl]-N-[3-(3-chloro-4-cyano-phenoxy)-2,2,4,4-tetramethyl-cyclobutyl]pyrimidine-5-carboxamide]
> 100	> 100	CC(=O)N1CCc2c(c(Nc3ccc(-c4cnn(C)c4)cc3F)nn2C2CN(CC3CCN(c4ncc(C(=O)NC5C(C)(C)C(Oc6ccc(C#N)c(Cl)c6)C5(C)C)cn4)CC3)C2)C1 (stereo not drawn) [Compound 4, 2-[4-[[3-[5-acetyl-3-[2-fluoro-4-(1-methylpyrazol-4-yl)anilino]-6,7-dihydro-4H-pyrazolo[4,3-c]pyridin-1-yl]azetidin-1-yl]methyl]-1-piperidyl]-N-[3-(3-chloro-4-cyano-phenoxy)-2,2,4,4-tetramethyl-cyclobutyl]pyrimidine-5-carboxamide]
< 1	0.1 to 1	COc1cc(OC2C(C)(C)C(NC(=O)c3ccc(N4CCC(CCc5ccc(-c6cc7cccc(-c8nn(C9CCOCC9)c9c8CN(C(C)=O)CC9)c7cn6)cn5)CC4)cc3)C2(C)C)ccc1C#N (stereo not drawn) [Compound 245, 4-[4-[2-[5-[8-(5-acetyl-1-tetrahydropyran-4-yl-6,7-dihydro-4H-pyrazolo[4,3-c]pyridin-3-yl)-3-isoquinolyl]-2-pyridyl]ethyl]-1-piperidyl]-N-[3-(4-cyano-3-methoxy-phenoxy)-2,2,4,4-tetramethyl-cyclobutyl]benzamide]
1 to 10	0.1 to 1	CC(=O)N1CCc2c(c(N3CCCc4cc(-c5ccn(C)n5)c(C(F)F)cc43)nn2C2CCN(CC3CCC(n4cc(C(=O)NC5C(C)(C)C(Oc6ccc(C#N)c(Cl)c6)C5(C)C)cn4)CC3)CC2)C1 (stereo not drawn) [Compound 241, 1-[4-[[4-[5-acetyl-3-[7-(difluoromethyl)-6-(1-methylpyrazol-3-yl)-3,4-dihydro-2H-quinolin-1-yl]-6,7-dihydro-4H-pyrazolo[4,3-c]pyridin-1-yl]-1-piperidyl]methyl]cyclohexyl]-N-[3-(3-chloro-4-cyano-phenoxy)-2,2,4,4-tetramethyl-cyclobutyl]pyrazole-4-carboxamide]
< 1	0.1 to 1	CC(=O)N1CCc2c(c(N3CCCc4cc(-c5cnn(C)c5)c(C)cc43)nn2C2CCN(CC3CCN(c4ncc(C(=O)NC5C(C)(C)C(Oc6ccc(C#N)c(Cl)c6)C5(C)C)cn4)CC3(C)C)CC2)C1 (stereo not drawn) [Compound 446, 2-[4-[[4-[5-acetyl-3-[7-methyl-6-(1-methylpyrazol-4-yl)-3,4-dihydro-2H-quinolin-1-yl]-6,7-dihydro-4H-pyrazolo[4,3-c]pyridin-1-yl]-1-piperidyl]methyl]-3,3-dimethyl-1-piperidyl]-N-[3-(3-chloro-4-cyano-phenoxy)-2,2,4,4-tetramethyl-cyclobutyl]pyrimidine-5-carboxamide]
< 1	0.1 to 1	COc1cc(OC2C(C)(C)C(NC(=O)c3ccc(N4CCN(C5CCN(c6ccc(-c7cc8c(cc7C(F)F)N(c7nn(C9CCOCC9)c9c7CN(C(C)=O)CC9)CCC8)cn6)CC5)CC4)cc3)C2(C)C)ccc1C#N (stereo not drawn) [Compound 325, 4-[4-[1-[5-[1-(5-acetyl-1-tetrahydropyran-4-yl-6,7-dihydro-4H-pyrazolo[4,3-c]pyridin-3-yl)-7-(difluoromethyl)-3,4-dihydro-2H-quinolin-6-yl]-2-pyridyl]-4-piperidyl]piperazin-1-yl]-N-[3-(4-cyano-3-methoxy-phenoxy)-2,2,4,4-tetramethyl-cyclobutyl]benzamide]
1 to 10	0.1 to 1	CC(=O)N1CCc2c(c(N3CCCc4ccc(C(F)F)cc43)nn2C2CC3(C2)CN(CC2CC4(C2)CN(c2ncc(C(=O)NC5C(C)(C)C(Oc6ccc(C#N)c(Cl)c6)C5(C)C)cn2)C4)C3)C1 (stereo not drawn) [Compound 219, 2-[6-[[6-[5-acetyl-3-[7-(difluoromethyl)-3,4-dihydro-2H-quinolin-1-yl]-6,7-dihydro-4H-pyrazolo[4,3-c]pyridin-1-yl]-2-azaspiro[3.3]heptan-2-yl]methyl]-2-azaspiro[3.3]heptan-2-yl]-N-[3-(3-chloro-4-cyano-phenoxy)-2,2,4,4-tetramethyl-cyclobutyl]pyrimidine-5-carboxamide]
< 1	≤ 0.1	CC(=O)N1CCc2c(c(N3CCCc4cc(-c5cnn(C)c5)c(C(F)F)cc43)nn2C2CCN(C3CC4(C3)CN(c3ncc(C(=O)NC5C(C)(C)C(Oc6ccc(C#N)c(Cl)c6)C5(C)C)cn3)C4)CC2)C1 (stereo not drawn) [Compound 348, 2-[6-[4-[5-acetyl-3-[7-(difluoromethyl)-6-(1-methylpyrazol-4-yl)-3,4-dihydro-2H-quinolin-1-yl]-6,7-dihydro-4H-pyrazolo[4,3-c]pyridin-1-yl]-1-piperidyl]-2-azaspiro [3.3]heptan-2-yl]-N-[3-(3-chloro-4-cyano-phenoxy)-2,2,4,4-tetramethyl-cyclobutyl]pyrimidine-5-carboxamide]
< 1	≤ 0.1	CC(=O)N1CCc2c(c(-c3cccc4cc(-c5cnn(C)c5)ncc34)nn2C2CCN(CC3CCN(c4ncc(C(=O)NC5C(C)(C)C(Oc6ccc(C#N)c(Cl)c6)C5(C)C)cn4)CC3)CC2)C1 (stereo not drawn) [Compound 136, 2-[4-[[4-[5-acetyl-3-[3-(1-methylpyrazol-4-yl)-8-isoquinolyl]-6,7-dihydro-4H-pyrazolo[4,3-c]pyridin-1-yl]-1-piperidyl]methyl]-1-piperidyl]-N-[3-(3-chloro-4-cyano-phenoxy)-2,2,4,4-tetramethyl-cyclobutyl]pyrimidine-5-carboxamide]

Compound	EC50 [1] [nM]	IC50 [2] [nM]
CC(=O)N1CCc2c(c(N3CCCc4cnccc43)nn2C2CCN(C(=O)C3CCN(c4ncc(C(=O)NC5C(C)(C)C(Oc6ccc(C#N)c(Cl)c6)C5(C)C)cn4)CC3)CC2)C1 (stereo not drawn) [Compound 128, 2-[4-[4-[5-acetyl-3-(3,4-dihydro-2H-1,6-naphthyridin-1-yl)-6,7-dihydro-4H-pyrazolo[4,3-c]pyridin-1-yl]piperidine-1-carbonyl]-1-piperidyl]-N-[3-(3-chloro-4-cyano-phenoxy)-2,2,4,4-tetramethyl-cyclobutyl]pyrimidine-5-carboxamide]	> 100	> 100
C[C@@H]1CC(=O)Nc2cccc(-c3ccc4c(c3)c(-c3cnn(C)c3)nn4CCN(C)c3ncc(C(=O)NC4C(C)(C)C(Oc5ccc(C#N)c(Cl)c5)C4(C)C)cn3)c2N1 (stereo partly drawn) [Compound 48, N-[3-(3-chloro-4-cyano-phenoxy)-2,2,4,4-tetramethyl-cyclobutyl]-2-[methyl-[2-[5-[(4R)-4-methyl-2-oxo-1,3,4,5-tetrahydro-1,5-benzodiazepin-6-yl]-3-(1-methylpyrazol-4-yl)indazol-1-yl]ethyl]amino]pyrimidine-5-carboxamide]	> 100	1 to 100
